Experimental data: US8901133B2, “Heterocyclic compounds and uses thereof” (Infinity Pharmaceuticals, Inc., priority 2010, dated 2014)

Experiments:
PI3Kδ = molecular target: T1, PI3Kδ (Homo sapiens, UniProt O00329); assay: PI3 Kinase HTRF assay, PI3Kδ; format: biochemical; conditions: 10 μM PIP2, 10 μM ATP; read-out: PI3K δ IC50
T1 construct: purchased Millipore Corporation 14-604-K
Outline: (§1)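 Recombinant human PI3K isoforms converting 10 μM PIP2 with 10 μM ATP; compound preincubated 15 min, reaction 1 h at room temperature, 2% DMSO. PIP3 detected by competitive HTRF (GRP1 PH domain displacement); IC50 by nonlinear regression of 12-point curves, 20 μM to 0.1 nM.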

PI3Kγ = molecular target: T2, PI3Kγ (Homo sapiens, UniProt P48736); assay: PI3 Kinase HTRF assay, PI3Kγ; format: biochemical; conditions: 10 μM PIP2, 10 μM ATP; read-out: PI3K γ IC50
T2 construct: purchased Millipore Corporation 14-558-K
Outline: as §1

PI3Kα = molecular target: T3, PI3Kα (Homo sapiens, UniProt P42336); assay: PI3 Kinase HTRF assay, PI3Kα; format: biochemical; conditions: 10 μM PIP2, 10 μM ATP; read-out: PI3K α IC50
T3 construct: purchased Millipore Corporation 14-602-K
Outline: as §1

PI3Kβ = molecular target: T4, PI3Kβ (Homo sapiens, UniProt P42338); assay: PI3 Kinase HTRF assay, PI3Kβ; format: biochemical; conditions: 10 μM PIP2, 10 μM ATP; read-out: PI3K β IC50
T4 construct: purchased Millipore Corporation 14-603-K
Outline: as §1

Balb/c splenic B cells = assay: B cell activation and proliferation assay (Alamar Blue); format: cell-based; conditions: Mus musculus, read-out: B cell prolif. IC50
Method: The ability of one or more subject compounds to inhibit B cell activation and proliferation is determined according to standard procedures known in the art. For example, an in vitro cellular proliferation assay is established that measures the metabolic activity of live cells. The assay is performed in a 96 well microtiter plate using Alamar Blue reduction. Balb/c splenic B cells are purified over a Ficoll-Paque™ PLUS gradient followed by magnetic cell separation using a MACS B cell Isolation Kit (Miletenyi). Cells are plated in 90 ul at 50,000 cells/well in B Cell Media (RPMI+10% FBS+Penn/Strep+50 uM bME+5 mM HEPES). A compound disclosed herein is diluted in B Cell Media and added in a 10 μl volume. Plates are incubated for 30 min at 37 C and 5% CO2 (0.2% DMSO final concentration). A 50 μl B cell stimulation cocktail is then added containing either 10 ug/ml LPS or 5 ug/ml F(ab′)2 Donkey anti-mouse IgM plus 2 ng/ml recombinant mouse IL4 in B Cell Media. Plates are incubated for 72 hours at 37° C. and 5% CO2. A volume of 15 μl of Alamar Blue reagent is added to each well and plates are incubated for 5 hours at 37 C and 5% CO2. Alamar Blue fluoresce is read at 560Ex/590Em, and IC50 or EC50 values are calculated using GraphPad Prism 5.

lupus symptoms = conditions: B6.Sle1z.Sle3z model; cited from earlier work
[1] = PBS pH 7.4, 37° C., 24 hours, 5 μM; cited from earlier work
[2] = control or reference compounds, 5 μM; cited from earlier work

T2 sequence (P48736 whole entry): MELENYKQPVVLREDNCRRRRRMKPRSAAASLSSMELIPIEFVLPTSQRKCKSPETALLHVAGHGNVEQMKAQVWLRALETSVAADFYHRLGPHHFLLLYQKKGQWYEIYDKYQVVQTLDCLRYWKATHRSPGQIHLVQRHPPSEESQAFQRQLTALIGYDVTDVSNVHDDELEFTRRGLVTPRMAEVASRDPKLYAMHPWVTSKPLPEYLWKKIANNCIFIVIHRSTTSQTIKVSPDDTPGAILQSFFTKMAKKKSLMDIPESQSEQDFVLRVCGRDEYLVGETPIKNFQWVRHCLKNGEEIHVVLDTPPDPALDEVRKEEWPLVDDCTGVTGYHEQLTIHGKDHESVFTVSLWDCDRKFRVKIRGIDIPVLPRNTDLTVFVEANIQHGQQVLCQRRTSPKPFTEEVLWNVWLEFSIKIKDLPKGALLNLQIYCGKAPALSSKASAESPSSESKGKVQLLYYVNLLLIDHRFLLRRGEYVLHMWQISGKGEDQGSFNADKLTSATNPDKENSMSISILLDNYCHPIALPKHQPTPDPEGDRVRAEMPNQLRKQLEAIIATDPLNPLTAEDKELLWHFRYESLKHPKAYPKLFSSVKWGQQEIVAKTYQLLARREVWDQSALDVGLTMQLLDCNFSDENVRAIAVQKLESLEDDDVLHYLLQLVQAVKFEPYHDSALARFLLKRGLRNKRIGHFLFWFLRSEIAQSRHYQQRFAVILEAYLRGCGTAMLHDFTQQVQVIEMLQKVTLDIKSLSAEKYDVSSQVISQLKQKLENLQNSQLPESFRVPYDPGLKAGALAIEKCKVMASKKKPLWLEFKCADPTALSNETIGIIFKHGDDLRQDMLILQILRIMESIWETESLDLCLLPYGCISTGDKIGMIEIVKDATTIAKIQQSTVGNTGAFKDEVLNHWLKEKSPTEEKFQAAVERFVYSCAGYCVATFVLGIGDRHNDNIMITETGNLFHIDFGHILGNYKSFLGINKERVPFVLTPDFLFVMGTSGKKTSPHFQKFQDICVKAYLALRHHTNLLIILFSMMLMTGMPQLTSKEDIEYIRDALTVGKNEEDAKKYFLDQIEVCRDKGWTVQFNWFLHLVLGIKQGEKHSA
T4 sequence (P42338 whole entry): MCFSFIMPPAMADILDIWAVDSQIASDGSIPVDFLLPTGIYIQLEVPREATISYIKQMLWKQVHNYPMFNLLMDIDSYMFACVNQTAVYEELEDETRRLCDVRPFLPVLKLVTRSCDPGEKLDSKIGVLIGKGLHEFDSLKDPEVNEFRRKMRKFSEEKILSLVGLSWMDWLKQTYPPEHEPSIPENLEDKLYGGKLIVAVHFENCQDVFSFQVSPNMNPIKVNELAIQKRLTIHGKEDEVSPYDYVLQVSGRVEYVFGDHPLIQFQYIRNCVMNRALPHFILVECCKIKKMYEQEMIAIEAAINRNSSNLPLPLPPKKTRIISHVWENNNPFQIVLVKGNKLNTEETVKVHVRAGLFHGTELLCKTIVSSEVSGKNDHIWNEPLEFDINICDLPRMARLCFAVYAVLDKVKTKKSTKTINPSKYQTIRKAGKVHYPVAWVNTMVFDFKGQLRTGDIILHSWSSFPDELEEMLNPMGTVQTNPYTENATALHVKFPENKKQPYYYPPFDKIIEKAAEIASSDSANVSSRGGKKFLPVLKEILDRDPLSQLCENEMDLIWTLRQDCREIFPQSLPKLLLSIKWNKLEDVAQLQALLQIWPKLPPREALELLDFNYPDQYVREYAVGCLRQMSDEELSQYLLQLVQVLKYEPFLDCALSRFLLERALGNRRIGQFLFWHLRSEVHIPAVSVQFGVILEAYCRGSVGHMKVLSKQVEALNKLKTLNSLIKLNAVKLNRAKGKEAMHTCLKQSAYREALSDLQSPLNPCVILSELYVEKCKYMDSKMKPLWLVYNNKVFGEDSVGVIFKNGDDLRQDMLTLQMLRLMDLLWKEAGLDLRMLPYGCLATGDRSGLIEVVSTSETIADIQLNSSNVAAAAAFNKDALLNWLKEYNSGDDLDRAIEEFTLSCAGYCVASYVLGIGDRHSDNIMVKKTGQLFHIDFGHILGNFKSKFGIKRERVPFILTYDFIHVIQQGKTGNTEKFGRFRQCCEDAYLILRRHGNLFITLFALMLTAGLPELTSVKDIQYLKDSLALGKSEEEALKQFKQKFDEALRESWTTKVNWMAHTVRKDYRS
T4 sequence (P27986 whole entry partner): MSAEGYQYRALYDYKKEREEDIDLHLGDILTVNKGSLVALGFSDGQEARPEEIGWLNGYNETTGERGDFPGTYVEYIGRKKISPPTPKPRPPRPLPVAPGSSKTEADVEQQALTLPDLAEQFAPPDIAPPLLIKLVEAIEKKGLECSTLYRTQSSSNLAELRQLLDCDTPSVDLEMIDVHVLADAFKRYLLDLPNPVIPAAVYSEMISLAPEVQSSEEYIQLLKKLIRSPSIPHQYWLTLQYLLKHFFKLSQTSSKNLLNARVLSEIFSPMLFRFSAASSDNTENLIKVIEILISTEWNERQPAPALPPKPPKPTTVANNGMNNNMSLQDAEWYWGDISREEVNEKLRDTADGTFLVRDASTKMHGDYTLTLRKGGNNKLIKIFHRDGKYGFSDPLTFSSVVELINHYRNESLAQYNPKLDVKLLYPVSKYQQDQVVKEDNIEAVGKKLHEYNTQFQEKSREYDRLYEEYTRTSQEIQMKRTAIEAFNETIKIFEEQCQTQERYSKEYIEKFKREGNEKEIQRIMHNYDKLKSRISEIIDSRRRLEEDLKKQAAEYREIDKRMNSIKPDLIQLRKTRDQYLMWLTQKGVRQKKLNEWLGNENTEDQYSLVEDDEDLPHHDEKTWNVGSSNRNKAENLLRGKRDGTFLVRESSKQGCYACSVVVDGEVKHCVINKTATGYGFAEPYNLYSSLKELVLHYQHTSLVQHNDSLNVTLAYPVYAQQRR
T1 sequence (O00329 whole entry): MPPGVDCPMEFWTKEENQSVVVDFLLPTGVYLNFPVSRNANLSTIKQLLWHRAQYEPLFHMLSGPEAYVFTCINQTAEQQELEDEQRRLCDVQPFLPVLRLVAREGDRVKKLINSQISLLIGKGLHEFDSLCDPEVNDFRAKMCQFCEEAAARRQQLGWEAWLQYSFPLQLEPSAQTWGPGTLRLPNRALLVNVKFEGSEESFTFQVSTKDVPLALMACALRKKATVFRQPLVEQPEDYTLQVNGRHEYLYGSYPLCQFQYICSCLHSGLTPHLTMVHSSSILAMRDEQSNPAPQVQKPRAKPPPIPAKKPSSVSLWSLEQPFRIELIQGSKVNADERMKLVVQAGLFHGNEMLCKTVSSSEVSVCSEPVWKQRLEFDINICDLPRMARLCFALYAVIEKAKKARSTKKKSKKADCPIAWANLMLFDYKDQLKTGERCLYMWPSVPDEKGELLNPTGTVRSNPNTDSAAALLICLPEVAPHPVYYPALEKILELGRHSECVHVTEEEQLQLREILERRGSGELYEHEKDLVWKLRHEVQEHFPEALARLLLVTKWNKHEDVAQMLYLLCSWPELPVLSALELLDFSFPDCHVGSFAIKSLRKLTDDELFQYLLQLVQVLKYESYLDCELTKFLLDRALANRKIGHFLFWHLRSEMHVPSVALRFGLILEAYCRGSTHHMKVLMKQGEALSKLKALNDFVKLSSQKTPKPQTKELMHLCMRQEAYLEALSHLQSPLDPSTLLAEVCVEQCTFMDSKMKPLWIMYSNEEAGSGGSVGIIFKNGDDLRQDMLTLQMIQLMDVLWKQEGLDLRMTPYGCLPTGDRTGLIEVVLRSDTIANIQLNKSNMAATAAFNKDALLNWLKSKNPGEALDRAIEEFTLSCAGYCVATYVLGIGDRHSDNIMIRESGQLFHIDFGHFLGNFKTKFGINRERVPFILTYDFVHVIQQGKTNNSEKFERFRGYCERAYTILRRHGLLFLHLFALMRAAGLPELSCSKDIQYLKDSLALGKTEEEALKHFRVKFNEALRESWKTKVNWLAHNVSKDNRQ
T1 sequence (P27986 whole entry partner): as the sequence (P27986 whole entry partner) above
T3 sequence (P42336 whole entry): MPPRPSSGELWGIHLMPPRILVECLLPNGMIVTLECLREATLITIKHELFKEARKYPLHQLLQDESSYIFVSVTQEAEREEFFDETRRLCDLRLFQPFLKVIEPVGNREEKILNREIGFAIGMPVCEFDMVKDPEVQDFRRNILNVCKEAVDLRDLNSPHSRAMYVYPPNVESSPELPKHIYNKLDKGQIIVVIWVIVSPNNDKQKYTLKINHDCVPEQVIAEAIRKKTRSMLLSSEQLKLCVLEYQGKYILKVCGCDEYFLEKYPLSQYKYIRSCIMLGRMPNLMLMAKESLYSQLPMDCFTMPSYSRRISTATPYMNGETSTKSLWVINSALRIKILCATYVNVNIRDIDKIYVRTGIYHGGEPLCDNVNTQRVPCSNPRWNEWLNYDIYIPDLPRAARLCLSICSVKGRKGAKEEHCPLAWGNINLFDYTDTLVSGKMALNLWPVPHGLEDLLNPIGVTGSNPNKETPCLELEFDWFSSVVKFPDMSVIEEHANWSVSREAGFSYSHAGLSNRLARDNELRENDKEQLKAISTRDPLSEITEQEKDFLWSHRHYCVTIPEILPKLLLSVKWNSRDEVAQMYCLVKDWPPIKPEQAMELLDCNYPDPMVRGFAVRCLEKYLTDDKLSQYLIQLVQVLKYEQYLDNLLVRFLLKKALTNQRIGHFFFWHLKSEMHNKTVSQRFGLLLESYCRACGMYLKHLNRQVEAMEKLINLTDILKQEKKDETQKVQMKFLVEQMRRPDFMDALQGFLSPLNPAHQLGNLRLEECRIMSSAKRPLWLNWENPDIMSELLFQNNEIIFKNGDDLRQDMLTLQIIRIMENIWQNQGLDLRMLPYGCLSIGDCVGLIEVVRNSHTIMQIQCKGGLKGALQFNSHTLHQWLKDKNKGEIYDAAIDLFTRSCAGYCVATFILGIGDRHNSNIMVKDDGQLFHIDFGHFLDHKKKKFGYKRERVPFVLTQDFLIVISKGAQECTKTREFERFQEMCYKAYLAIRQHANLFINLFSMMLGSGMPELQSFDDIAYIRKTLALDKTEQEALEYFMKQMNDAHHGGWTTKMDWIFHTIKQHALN
T3 sequence (P27986 whole entry partner): as the sequence (P27986 whole entry partner) above

Compound	IC50 (PI3Kδ) [µM]	IC50 (PI3Kγ) [µM]	IC50 (PI3Kα) [µM]	IC50 (PI3Kβ) [µM]	IC50 (Balb/c splenic B cells) [µM]	lupus symptoms (lupus symptoms)	chemical stability [1]	plasma stability [2]
C[C@H](Nc1ncnc2scnc12)c1cc2cccc(Cl)c2c(OC2CCN(S(C)(=O)=O)CC2)n1 [Compound 172]	< 0.1	< 10	> 10	< 10	< 1			
C[C@H](Nc1ncnc2cccnc12)c1cc2cccc(Cl)c2c(OC2CCN(S(C)(=O)=O)CC2)n1 [Compound 173]	< 0.1	< 10	> 10	< 10	< 1			
C[C@H](Nc1ccnn2ccnc12)c1cc2cccc(Cl)c2c(OC2CCN(S(C)(=O)=O)CC2)n1 [Compound 176]	< 0.1	< 10	> 10	< 10	< 1			
C[C@H](Nc1ccnc2ccnn12)c1cc2cccc(Cl)c2c(C(=O)NC2CCOCC2)n1 [Compound 177]	< 0.1	> 10	> 10	> 10	< 0.1			
C[C@H](Nc1ccnn2ccnc12)c1cc2cccc(Cl)c2c(C(=O)NC2CCOCC2)n1 [Compound 180]	< 0.1	> 10	> 10	> 10	< 0.1			
C[C@H](Nc1ccnn2ccnc12)c1cc2cccc(Cl)c2c(OCCN2CCCC2)n1 [Compound 182]	< 0.1	> 10	> 10	> 10	< 1			
C[C@H](Nc1ncnc2[nH]cnc12)c1cc2cccc(-c3cnn(C)c3)c2c(C(=O)N2CCOCC2)n1 [Compound 185]	< 0.1	< 10	> 10	> 10	< 0.1			
C[C@H](Nc1ccnn2ccnc12)c1cc2cccc(Cl)c2c(C(=O)N2CCOCC2)n1 [Compound 188]	< 0.1	< 1	< 10	< 1	< 0.1			
C[C@H](Nc1ccnn2ccnc12)c1cc2cccc(Cl)c2c(C(=O)N2C3CCC2COC3)n1 [Compound 189]	< 0.1	< 10	> 10	< 10	< 0.1			
C[C@H](Nc1ncnc2[nH]cnc12)c1cc2cccc(-c3cccnc3)c2c(Cl)n1 [Compound 192]	< 0.1	< 1	> 10	> 10	< 1			
C[C@H](Nc1ncnc2[nH]cc(C(N)=O)c12)c1cc2cccc(Cl)c2c(C(=O)N2CCOCC2)n1 [Compound 204]	< 0.1	< 0.1	< 10	< 10	< 0.1			
C[C@H](Nc1ncnc2[nH]cc(C(N)=O)c12)c1cc2cccc(Cl)c2c(C(=O)N2C3CCC2COC3)n1 [Compound 207]	< 0.1	< 0.1	< 10	< 10	< 0.1			
C[C@H](Nc1ncnc2[nH]cc(F)c12)c1cc2cccc(Cl)c2c(C(=O)N2C3CCC2COC3)n1 [Compound 208]	< 0.1	< 1	< 10	< 10	< 0.1			
CCN1CCC(NC(=O)c2nc([C@H](C)Nc3ncnc4scnc34)cc3cccc(Cl)c23)CC1 [Compound 212]	< 0.1	< 10	< 10	< 10	< 0.1			
C[C@H](Nc1ncnc2scnc12)c1cc2cccc(Cl)c2c(C(=O)NC2CCCC2)n1 [Compound 213]	< 0.1	< 10	< 10	> 10	< 0.1			
C[C@H](Nc1ncnc2scnc12)c1cc2cccc(Cl)c2c(C(=O)NC2CCC(O)CC2)n1 (stereo partly shown) [Compound 214]	< 0.1	< 10	< 10	> 10	< 0.1			
C[C@H](Nc1ncnc2scnc12)c1cc2cccc(Cl)c2c(C(=O)N2CCS(=O)(=O)CC2)n1 [Compound 220]	< 0.1	< 1	> 10	< 10	< 0.1			
C[C@H](Nc1ncnc2scnc12)c1cc2cccc(Cl)c2c(C(=O)N2CCC(F)(F)CC2)n1 [Compound 228]	< 0.1	< 10	< 10	< 10	< 0.1			
C[C@H](Nc1ncnc2scnc12)c1cc2cccc(Cl)c2c(C(=O)N2CCOC[C@@H]2C)n1 [Compound 232]	< 0.1	< 10	< 10	< 10	< 0.1			
C[C@H](Nc1ncnc2scnc12)c1cc2cccc(Cl)c2c(C(=O)N2CCC(O)CC2)n1 [Compound 234]	< 0.1	< 10	< 10	< 10	< 0.1			
C[C@H](Nc1nc(N)nc2cccnc12)c1cc2cccc(Cl)c2c(C(=O)N2CCOCC2)n1 [Compound 238]	< 0.1	< 0.1	> 10	< 10	< 0.1			
C[C@H](Nc1ncnc2[nH]cnc12)c1cc2cccc(Cl)c2c(-c2cc(CO)on2)n1 [Compound 242]	< 0.1	< 1	< 10	< 1	< 0.1			
C[C@H](Nc1ncnc2cccnc12)c1cc2ccccc2c(C(=O)N2CCOCC2)n1 [Compound 247]	< 0.1	> 10	> 10	> 10	< 1			
C[C@H](Nc1ncnc2cccnc12)c1cc2cccc(Cl)c2c(C(=O)N2CCOC[C@@H]2C)n1 [Compound 248]	< 0.1	< 1	< 10	< 10	< 0.1			
CO[C@H]1C[C@@H]2CC[C@@H](C)[C@@](O)(O2)C(=O)C(=O)N2CCCC[C@H]2C(=O)O[C@H]([C@H](C)C[C@@H]2CC[C@@H](OCCO)[C@H](OC)C2)CC(=O)[C@H](C)/C=C(\C)[C@@H](O)[C@@H](OC)C(=O)[C@H](C)C[C@H](C)/C=C/C=C/C=C/1C [RAD001, everolimus]						ameliorate lupus symptoms		
O=C(O)CCCc1ccc(N(CCCl)CCCl)cc1 [chlorambucil]							largely hydrolyzed over the course of 24 hours	
CC(C)[N+](C)(CCOC(=O)C1c2ccccc2Oc2ccccc21)C(C)C [propantheline]								intermediate plasma stability
CCCOc1cc(N)ccc1C(=O)OCCN(CC)CC [propoxycaine]								low plasma stability
